From PMC11955804, “Histidine-rich enantiomeric peptide coacervates enhance antigen sequestration and presentation to T cells” (Chemical Science, 2025)

Tests used:
[1] = tested on: CD8+T cells from OT-I mice on BMDCs; assay: OT-I CD8+ T cell proliferation; type: cell-based, mouse; settings: BMDCs treated with OVA-loaded coacervates 24 h, CTV-labeled OT-I T cells ~66 h, flow cytometry
Description: (§1) page 14: parameters across two channels: eGFP and DAPI. […] Cells were incubated at 37°C (protected from light) for 20 min, after which 5× staining volume of EasySep Buffer was added for another 5 min of incubation. The cells were counted again, centrifuged at 300 g for 5 min, resuspended in RPMI-1640 (Gibco 31800- 022) with 10% FBS (R and D Systems […]), 10 mM HEPES (Sigma H0887), 1× MEM NEAA (Gibco 11140-050), 1 mM sodium pyruvate (Gibco 11360-070), 1× pen-strep glutamine (Gibco 10378-016), and 55 μM β-mercaptoethanol (Gibco 21985-023) added fresh, and then plated onto treated BMDCs. The plates were incubated for ~66 h, after which supernatants were collected for Mouse Adaptive Immune CodePlex Secretome analyses (Bruker Cellular Analysis, Inc), and cells were collected for flow cytometry studies. Flow cytometry Total cells from the spleen and lymph nodes of OT-I/OT-II mice were washed with FACS […] staining. […] Data were analyzed with FlowJo version 10. Proliferation was quantified as the percentage of daughter cells out of single, live, CD4+ or CD8+T cells, gated as having a lower CTV fluorescence intensity than the peak of highest fluorescence (undivided). […] Data are expressed as mean ± S.E.M. and statistical analysis was performed using a one-way or two-way ANOVA with Tukey/Sidak's/Dunnett's multiple comparison test. *p ≤ 0.05, **p ≤ 0.01, ***p ≤ 0.001, ****p ≤ 0.0001. […]

[2] = Rheology testing of coacervate suspensions; type: physicochemical
Description: NaCl) was used to study ionic strength effects. The absorbance was further converted to turbidity using methods previously described 1 and data was plotted as relative turbidity.
Optical microscopy and dynamic light scattering (DLS)
Droplets were visualized in 1×PBS using NCI Leica DMC4500 microscope in reflection mode with differential interference contrast. Images were captured with a DMC4500 camera under the control of Leica LAS X software (version 3.4.2). Coacervate size was measured using 1 mM peptide solutions (1×PBS, pH 7.4) on a ZEN 3600 Zetasizer (Malvern Instruments, UK) using DLS-Zen 0040 specialized cuvettes. The results were reported as the means of three measurements, with 14 scans for each measurement.
Transmission electron microscopy (TEM)
Peptide solutions prepared for TEM were applied directly to 200-mesh, carbon-coated copper grids for 2 min and stained with 1% uranyl formate for 1 min. Excess stain was blotted using filter paper. Brightfield images were taken with a JEOL JEM-1400 transmission electron microscope with a NANOSPRT15 camera at an accelerating voltage of 120 kV.
Viscosity of the peptide solutions (1 mM or 2 mM) was tested using an ARES 2000ex rotational rheometer (TA Instruments, New Castle, DE). Peptides were freshly solubilized, and 170 µL of each was pipetted onto the rheometer stage. A 20-mm parallel plate geometry was lowered to a gap of 200 µm. Storage modulus (G′) and loss modulus (G″) were measured as a function of angular frequency (1–10 rad/s) with 1% strain. Viscosity was measured as a function […]
of shear rate (1–100 s-1). Separately, viscosity was measured using a Hagen-Poiseuille viscometer (RheoSense microVISC, San Ramon, CA) at a shear rate of 2500 s-1 to confirm viscosity differences at two different concentrations (1 mM and 2 mM).
Computational simulations
All simulations were performed using GROMACS 2023 2,3 and the CHARMM36m 4 force field. The necessary force field parameters and input files were generated using AlphaFold 5 predicted structures coupled with CHARMM-GUI 6. A single peptide chain was solvated in a 5-nm cubic box. […]

[3] = tested on: CD4+T cells from OT-II mice on BMDCs; assay: OT-II CD4+ T cell proliferation; type: cell-based, mouse; settings: BMDCs treated with OVA-loaded coacervates 24 h, CTV-labeled OT-II T cells ~66 h, flow cytometry
Description: as §1

[4] = angular frequency 1–10 rad/s, 1% strain

| Substance | CD8+T cell proliferation [1] | fold increase in G′ compared to proline [2, 4] | fold increase in G′ compared to valine droplets [2, 4] | viscosity of coacervate suspension ([2]; parallel plate rheology at fixed shear rate, 1 or 2 mM peptide, compared to valine or proline variants) | CD4+T cell proliferation [3] |
| --- | --- | --- | --- | --- | --- |
| (GHGVY)4 [GV 20] | higher percentage of proliferated cells | 2 fold |  |  |  |
| (GHGLY)4 [GL 20] |  |  | ~3 fold | greater viscosity | slightly higher |
